Results reported in US12622916B2, “Use of H3K9me3 modulation for enhancing cognitive function” (THE REGENTS OF THE UNIVERSITY OF CALIFORNIA, priority 2015, dated 2026).

Experiments:
hippocampal synaptosomes = experiment: Flow synaptometry of hippocampal synaptosomes of aged mice; type: in vivo; conditions: 10 mg/kg i.p.
Procedure: (§1) Spine counts: In another series of experiments 10 aged mice (20-22 months) were injected with ETP69 (10 mg/kg; i.p) or vehicle (i.p) and 24 hours later the animals were euthanized and the brains were separated into two hemispheres. Right hemisphere was used for Golgi staining and the left was processed for flow synaptometry. Staining was conducted according to manufacturer's information (Golgi-Cox, Bioenna).
Flow Synaptometry: Fresh synaptosome P2 fractions were obtained from whole mouse hippocampus using our long-standing protocol. Briefly, the fractions were obtained from the hippocampus by homogenizing tissue (1:10 w/v) in ice-cold sucrose 320 mM. All the steps were carried out at 4° C.; sucrose buffer, grinder, pestle and microfuge tubes were all pre-cooled on ice. Hippocampi were rapidly dissected from a single mouse and homogenized in 320 mM sucrose (1.5 ml) containing HEPES [10 mM] and protease/phosphatase inhibitors cocktail, pH 7.4. Homogenization consisted of 6-8 manual strokes in a glass-Teflon grinder, clearance (between plunger and glass): 0.15-0.25 mm. Plunger was gently rotated during strokes while the grinder was kept on ice. The homogenate was centrifuged at 1200 g for 10 min. Supernatant (S1, containing mitochondria and synaptosomes) was transferred into two clean microfuge tubes and centrifuged at 12,000 g for 20 min. Supernatants (S2) were carefully removed using a plastic tip and vacuum. Pellets (P2, corresponding to the crude synaptosome fraction) were resuspended by gently pipetting up and down in 1.5 ml of PBS Protein concentration was determined using the BCA assay using bovine serum albumin (BSA) as standard. Before immunolabeling, all samples were adjusted to the same protein concentration using PBS as diluent. Immunolabeling for flow synaptometry analysis was performed according to a method for staining of extracellular/intracellular antigens using 200 ul of synaptosomal fractions (50-100 μg protein). Antibodies: GluR1 (extracellular) (Millipore, ABN241, DIL=1:400), p-Akt-ser473 (Cell Signaling, 4060, DIL=1:400), PSD-95 (Millipore, MAB1598, DIL=1:400), anti-rabbit IgG Alexa-488 ad anti-mouse IgG Alexa 647 (Life Science, DIL=1:400). […] Relative size and granularity was determined by forward (FSC) and side scatter (SSC) properties. […] Alexa 488 and Alexa 647 fluorochromes were detected by the FL1 and FL4 detectors, respectively. […] Ten thousand size-gated particles were collected and analyzed for each sample. […]
Next, we studied the influence of ETP69 on synapses using flow synaptometry, an innovative approach to molecularly characterize isolated synaptosomes (presynaptic terminals attached to post-synaptic dendritic spines). […] After drug treatment, hippocampal synaptosome fractions were immunostained and analyzed by flow synaptometry. […]

CREB = CREB phosphorylation at Ser133 by Western blotting; type: cell-based
Text: FIG. 16 is an image illustrating ETP69 increased CREB phosphorylation at Ser133 measured by Western blotting. CREB is a transcription factor whose activation is involved in synaptic plasticity and memory formation.

CA1 pyramidal neurons = experiment: Spine counts (Golgi staining) on CA1 pyramidal neurons of aged mice; type: in vivo; conditions: 10 mg/kg i.p., 24 hours
Procedure: as §1
Specifically, we counted and classified spines on CA1 pyramidal neurons. Dendrite segments from neurons in CA1 of the hippocampus were imaged by confocal microscopy and a blinded investigator counted and classified dendritic spines according to their morphology. Spines were manually counted and classified as thin, mushroom, or stubby, according to previously described criteria.
For each animal, at least 3 pyramidal neurons and 200 μm of total dendrite length and 250-500 spines were analyzed (n=5 animals per group). All of the neurons were chosen from the dorsal part of the CA1 hippocampal region (according with it essential role in spatial memory) and were completely stained along basal and apical dendrites. FIG. 10 presents representative images showing effect of ETP69 treatment on spines in the CA1 of the hippocampus.

[1] = tested on: panel of 17 human histone methytransferases; experiment: Selectivity against a panel of 17 human histone methyltransferases; type: biochemical; conditions: versus chaetocin A
Text: In accordance with one or more embodiments of the present invention, the role of H3K9me3 in learning and memory in an animal model of aging using a newly developed analog of the epidithiodiketopiperazine alkaloid chaetocin A called ETP69, illustrated in FIG. 1, is studied.

H3K9me3 [2] = experiment: H3K9me3 level in cultured hippocampal neurons by Western blotting; type: cell-based
Procedure: Next, we examined the effect of ETP69 on H3K9me3 levels in cultured hippocampal neurons. […] FIGS. 14A-B are illustrations of the effect of ETP69 on H3K9me3 levels in 14 DIV hippocampal neurons (FIG. 14A—gel image; FIG. 14B—quantification, n=3, *, p<0.05). As the illustrations show, ETP69 treatment (24 hours) decreased H3K9me3 level measured by Western blotting.

H3K9me3 [3] = experiment: Histone H3K9 trimethylation level in brain tissue extracts of aged mice; type: in vivo

## CN1C(=O)[C@@]23C[C@](C)(C#N)[C@H](c4ccc5c(c4)OCO5)N2C(=O)[C@]1(C)SS3 (racemic) [ETP69, Rac-(3S,6S,7S,8aS)-6-(benzo[d][1,3]dioxol-5-yl)-2,3,7-trimethyl-1,4-dioxohexahydro-6H-3,8a-epidithiopyrrolo[1,2-a]pyrazine-7-carbonitrile]
Hippocampal synaptosomes; 24 hours
  PSD95 levels per particle (Mean Fluorescence of intensity): No detectable changes
  proportion of size-gated synaptosomes expressing PSD95: increases the proportion of synaptosomes expressing PSD95
Hippocampal synaptosomes; versus vehicle-treated controls
  PSD95-positive events co-expressing surface GluR1: increase
Hippocampal synaptosomes; versus vehicle-treated mice
  proportion of events expressing both p-Akt and PSD-95: increased the proportion of events expressing both p-Akt and PSD-95
CREB
  phosphorylation of CREB at Ser133: increased phosphorylation
CA1 pyramidal neurons; CA1
  density of stubby spines: significantly higher density
  density of thin spines: significantly higher density
  numbers of mushroom spines/length of dendrite: no difference
CA1 pyramidal neurons; CA1 hippocampus
  increase in total number of spines per length of dendrite compared to controls: 45%
[1]
  selectivity against a panel of 17 human histone methytransferases compared with chaetocin A: significantly greater selectivity
H3K9me3 [2]; 20 nM, 24 hours
  neuronal H3K9me3 level at 20 nM: greatest decrease
H3K9me3 [2]; 24 hours treatment, 14 DIV hippocampal neurons
  neuronal H3K9me3 level: dose-dependent decrease
H3K9me3 [3]; 10 mg/kg i.p., 24 hours post drug, hippocampal histone extracts
  H3K9me3 levels in hippocampus: decreases in H3K9me3 levels
H3K9me3 [3]; ETP69-treated versus untreated, cerebellum
  H3K9me3 levels in cerebellum: no significant difference
